Reference: patent US20220305051A1 (priority 2019, published 2022)

Key:
oral NR activity [1] = system: oral NR activity; set-up: species or system mice; details: mouse, in vivo
[2] = set-up: species or system mice; details: mouse, in vivo
[3] = system: tongue and lung microbiome; set-up: species or system mice; details: mouse, in vivo
[4] = system: C57bl/6 mice exposed to Cl2, Br2 or COCl2; details: mouse, in vivo
oral NR activity [5] = system: oral NR activity; set-up: species or system mice; details: mouse, in vivo; remark: listed apart in the source
[6] = mouse, in vivo
P. Aeruginosa = system: P. Aeruginosa; set-up: species or system mice; details: mouse, in vivo
[7] = system: C57bl/6 mice exposed to Br2; details: mouse, in vivo
[8] = system: C57bl/6 mice exposed to Br2; details: mouse, in vivo; remark: listed apart in the source

[H]/N=C(\N/C(=N/[H])NCCCCCCNC(=N)NC(=N)Nc1ccc(Cl)cc1)Nc1ccc(Cl)cc1 [chlorhexidine]
Inhibition of NR activity (oral NR activity [1]): ~70%
Decrease of plasma nitrite [2]: 50%
Decrease in abundance of 7 bacteria on the tongue [3]: > 50%
Decrease of the one altered bacterial species in the lung microbiome [3]: ~30%
Increase in severity of Br2 and COCl2 lung injury [4]: 1.5-2.5 fold
Increase in severity of Cl2 lung injury [4]: close to significant effects
Lung injury, chlorhexidine alone [4]: no effect on lung injury

bromine [Br2]
Bacterial number (CFU) (oral NR activity [5]): not different
NR activity normalized per bacterial number (oral NR activity [5]): significantly inhibited

O=[N+]([O-])O [nitrate]
Plasma nitrite and cGMP [6]: will temporally increase plasma nitrite and cGMP
Plasma nitrite levels [6]: increase

O=NO [nitrite, sodium nitrite]
Protection against ALI and P. aeruginosa infection (P. Aeruginosa): protects against ALI and P. aeruginosa infection
Susceptibility to P. aeruginosa infection (bacterial burden in lung homogenates) (P. Aeruginosa): decreases susceptibility to P. aeruginosa infection
Survival over 10 days (Kaplan Meier) [7]: improved survival early
Decrease of BAL neutrophil [8]: 50%

B1: hemopexin: a heme-scavenger; scavenges free heme (protein, UniProt P02790 24-462, looked up)
Hemopexin: TPLPPTSAHGNVAEGETKPDPDVTERCSDGWSFDATTLDDNGTMLFFKGEFVWKSHKWDRELISERWKNFPSPVDAAFRQGHNSVFLIKGDKVWVYPPEKKEKGYPKLLQDEFPGIPSPLDAAVECHRGECQAEGVLFFQGDREWFWDLATGTMKERSWPAVGNCSSALRWLGRYYCFQGNQFLRFDPVRGEVPPRYPRDVRDYFMPCPGRGHGHRNGTGHGNSTHHGPEYMRCSPHLVLSALTSDNHGATYAFSGTHYWRLDTSRDGWHSWPIAHQWPQGPSAVDAAFSWEEKLYLVQGTQVYVFLTKGGYTLVSGYPKRLEKEVGTPHGIILDSVDAAFICPGSSRLHIMAGRRLWWLDLKSGAQATWTELPWPHEKVDGALCMEKSLGPNSCSANGPGLYLIHGPNLYCYSDVEKLNAAKALPQPQNVTSLLGCTH
Protection against ALI and P. aeruginosa infection (P. Aeruginosa): protects against ALI and P. aeruginosa infection
Survival over 10 days (Kaplan Meier) [7]: improved survival
